From patent publication US9334299B2, “Water-soluble camptothecin derivative, pharmaceutical composition and use thereof” (Hunan Fangshenghuamei Medical Tech. Co. Ltd., priority 2011, dated 2016) come the findings set out here.

“Also recorded” adds a separate entry of the source. Read-outs that look alike come from different tables or passages of the source.

Common to all, as to assay type: cell-based
In assay [1] the test system is MDAMB231 (breast cancer) cells. Briefly: CellTiter-Glo cell viability assay, MDAMB231 cells. The conditions noted are these: Homo sapiens, read-out: MDAMB231 cell viability after 48 hours of treatment. From the text: (§1) To determine the ability of Compound Dix-905 (also referred as Compound 905) to kill cancer cells, we performed a cell viability assay via CellTiter-Glo kit (Promega) using various cell lines. The kit measures the ATP levels via an enzymatic Luciferase assay. Viable cells, having normal metabolic rates and producing normal levels of ATP, will is have a high turnover of Luciferase substrates, which requires ATP for the enzymatic reaction and emits luminescent signals. By contrast, dying cells will have lower outcome of luminescent signals since their metabolic functions are diminished. The emitted luminescent signals will then be captured by a luminometer.
(§2) To perform the viability assay, small cell lung cancer cells (ATCC catalog No. H146), breast cancer cells (ATCC catalog No. MDAMB231) or colon cancer cells (ATCC catalog No. HCT116) were seeded in 96 wells and treated via Compound Dix-905 and other anti-cancer drugs for a time period of 24, 48, 72 hours. At each respective time point, cells were mixed with Cell Titer Glow reagents for 1 h and evaluated for luminescent signals.
In the “CPT” group, the MDAMB231 (breast cancer) cells were treated with CPT (dissolved in DMSO) in 4 concentrations (0, 0.1, 1.0, 10 μM, respectively) for 48 hours. In the Dix-902, Dix-904 and Dix-906 groups, MDAMB231 (breast cancer) cells were treated respectively with the corresponding compounds (dissolved in a saline solution) in 4 concentrations (0, 0.1, 1.0, 10 μM, respectively) for 48 hours.
(In general: In ATP-based viability assays light output follows the ATP content of the culture.)

The subject of assay [2] is HCT116 (colon cancer) cells. Briefly: CellTiter-Glo cell viability assay, HCT116 cells. The conditions noted are these: for viability at 0.1 µM / viability at 1 µM / viability at 10 µM: Homo sapiens, HCT-116, 48 hours, read-out: HCT116 cell viability after 48 hours of treatment; for cell killing / dose-dependent cell death in HCT116 cells, result in words: compared with CPT, 5-FU, Etoposide (FIGS. 7-8, Table 5).
From the text: as §1, §2
In the “CPT” group, the is HCT116 cells were treated with CPT (dissolved in DMSO) in 4 concentrations (0, 0.1, 1.0, 10 μM, respectively) for 48 hours. In the Dix-902, Dix-904 and Dix-906 groups, HCT116 cells were treated respectively with the corresponding compounds (dissolved in a saline solution) in 4 concentrations (0, 0.1, 1.0, 10 μM, respectively) for 48 hours.

Assay [3] has as its system H146 (small cell lung cancer) cells. Briefly: CellTiter-Glo cell viability assay, H146 cells. The settings on record: for viability at 0.1 µM / viability at 1 µM / viability at 10 µM: Homo sapiens, read-out: H146 cell viability after 48 hours of treatment; for cell killing / dose-dependent cell death in H146 cells, result in words: compared with CPT, floxuridine, etoposide (FIGS. 4-5, Table 3).
From the text: as §1, §2
In the “CPT” group, the H146 (small cell lung cancer) cells were treated with CPT (dissolved in DMSO) in 4 concentrations (0, 0.1, 1.0, 10 μM, respectively) for 48 hours; In the Dix-902, Dix-904 and Dix-906 groups, H146 (small cell lung cancer) cells were treated respectively with the corresponding compounds (dissolved in a saline solution) in 4 concentrations (0, 0.1, 1.0, 10 μM, respectively) for 48 hours.

For the next assay, the system named is H1693 cells. In words: Cell viability (cell killing) assay, H1693 cells. The conditions noted are these: compared with CPT, floxuridine, etoposide (FIGS. 1-2).
The test system of assay [4] is Caspase 3/7 in H1693 cells. Briefly: Caspase-Glo 3/7 caspase activation assay, H1693 cells. The conditions noted are these: FIG. 3. On the procedure: (§3) For caspase activation, similar assays could be performed using the Caspase-Glo 3/7kit from Promega after cells were treated with respective agents for various time points. The mechanism of Caspase 3/7 Glow assay is by using Caspase 3/7 substrate fused with Luciferase substrate, which could be cleaved by activated Caspase 3/7. The released Luciferase substrate then undergoes an enzymatic reaction and emits luminescent signals. In contrast to the viability assay, the limiting step for this assay is caspase activation. Dying cells bearing the activated Casapses will have a high readout of luminescent signals in a luminometer.

Assay [5] has as its system Caspase 3/7 in H146 cells. Briefly: Caspase-Glo 3/7 caspase activation assay, H146 cells. The settings on record: FIG. 6. On the procedure:
as §3

Turning to `CC[C@@]1(O)C(=O)OCc2c1cc1n(c2=O)Cc2cc3ccccc3nc2-1` [CPT, Camptothecin], the viability at 0.1 µM amounted to 13% in assay [1] (MDA-MB-231, 0.1 μM, 48 hours); 96% in assay [2]; 65% in assay [3] (NCI-H146, 0.1 μM, 48 hours). The viability at 1 µM in assay [1] (MDA-MB-231, 1.0 μM, 48 hours) is 5%; in assay [2] it was 76%; in assay [3] (NCI-H146, 1.0 μM, 48 hours), 51%. In addition, the viability at 10 µM in assay [1] (MDA-MB-231, 10 μM, 48 hours) was found to be 3%; in assay [2], 11%; in assay [3] (NCI-H146, 10 μM, 48 hours), 24%. Besides, in assay [2], the “cell killing / dose-dependent cell death in HCT116 cells, result in words” value is recorded as “Dose-dependent cell death”.
As to `CC[C@@]1(OP(=O)(O)OC[C@H]2O[C@@H](n3ccc(N)nc3=O)C[C@@H]2O)C(=O)OCc2c1cc1n(c2=O)Cc2cc3ccccc3nc2-1` [Dix-902], in assay [1] (MDA-MB-231, 48 h), the viability at 0.1 µM turned out to be 15%, the viability at 1 µM was found to be 4% and the viability at 10 µM turned out to be 2%. Besides, in assay [2], the viability at 0.1 µM is 87%; the viability at 1 µM came out at 68%; the viability at 10 µM was found to be 9%; the “cell killing / dose-dependent cell death in HCT116 cells, result in words” value was “higher than that CPT”. In assay [3] (NCI-H146, 48 h), the viability at 0.1 µM was 66%, the viability at 1 µM worked out at 43% and the viability at 10 µM was found to be 20%. Further, the “cell killing / dose-dependent cell death in H146 cells, result in words” value in assay [3] is given as “similarly to or even slightly better than that of CPT”.
On to `CC[C@@]1(OP(=O)(O)OC[C@H]2O[C@@H](n3cnc4c(N)ncnc43)C[C@@H]2O)C(=O)OCc2c1cc1n(c2=O)Cc2cc3ccccc3nc2-1` [Dix-904], for which, in assay [1] (MDA-MB-231, 48 h), the viability at 0.1 µM is 13%, the viability at 1 µM was determined as 3% and the viability at 10 µM is 1%. Further, in assay [2], the viability at 0.1 µM amounted to 95%; the viability at 1 µM is 70%; the viability at 10 µM turned out to be 10%; the “cell killing / dose-dependent cell death in HCT116 cells, result in words” value is given as “higher than that CPT”. Besides, in assay [3] (NCI-H146, 48 h), the viability at 0.1 µM came to 67%, the viability at 1 µM came to 44% and the viability at 10 µM worked out at 19%. The “cell killing / dose-dependent cell death in H146 cells, result in words” value in assay [3] was “similarly to or even slightly better than that of CPT”.
Take `CC[C@@]1(OP(=O)(O)OC[C@H]2O[C@@H](n3cc(F)c(=O)[nH]c3=O)C[C@@H]2O)C(=O)OCc2c1cc1n(c2=O)Cc2cc3ccccc3nc2-1` [Dix-905]: the “cell killing in H1693 cells, result in words” value with H1693 cells was “cell killing response better than that of CPT; also recorded: more effective cell killing in H1693 than that of CPT, floxuridine, and etoposide”. In addition, the “cell death in H1693 via Caspase activation (apoptotic pathway)” value in assay [4] was “time- and dose-dependent cell death”. In addition, the “cell killing / dose-dependent cell death in HCT116 cells, result in words” value in assay [2] was “Dose-dependent cell death”; in assay [2] (listed as DIX-905), “more effective in cell killing than that of CPT, 5-FU and Etoposide”. For the same compound, the “cell death in H146 via Caspase activation (apoptotic pathway)” value in assay [5] is “time- and dose-dependent cell death”. The “cell killing / dose-dependent cell death in H146 cells, result in words” value in assay [3] was “cell killing response in H146 better than that of CPT; also recorded: more effective cell killing in H146 than that of CPT, floxuridine, and etoposide”.
As to `CC[C@@]1(OP(=O)(O)OC[C@H]2O[C@@H](n3cc(C)c(=O)[nH]c3=O)C[C@@H]2O)C(=O)OCc2c1cc1n(c2=O)Cc2cc3ccccc3nc2-1` [Dix-906], the viability at 0.1 µM was 14% in assay [1] (MDA-MB-231, 0.1 μM, 48 hours); 90% in assay [2]; 64% in assay [3] (NCI-H146, 0.1 μM, 48 hours). Besides, the viability at 1 µM in assay [1] (MDA-MB-231, 1.0 μM, 48 hours) came out at 4%; in assay [2] it was 71%; in assay [3] (NCI-H146, 1.0 μM, 48 hours), 45%. Also, the viability at 10 µM worked out at 3% in assay [1] (MDA-MB-231, 10 μM, 48 hours); 8% in assay [2]; 21% in assay [3] (NCI-H146, 10 μM, 48 hours). Further, the “cell killing / dose-dependent cell death in HCT116 cells, result in words” value in assay [2] is “higher than that CPT”. Also, the “cell killing / dose-dependent cell death in H146 cells, result in words” value in assay [3] is “similarly to or even slightly better than that of CPT”.

By viability is commonly meant the share of living cells, or the viability signal relative to a control.
